The assay concerns NCI-H295R. The assay is described as follows: IC50 (antiproliferative, ATP content). The settings on record: 48 h. The method, boiled down:
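Following overnight culture of adrenocortical carcinoma cells (1500 per well) in 1536-well plates with serum-free ITS-supplemented DMEM, library compounds were pin-transferred at 8 final concentrations from 0.6 nM to 46 µM. Incubation lasted 48 h at 37 °C, 5% CO2, and the CellTiter-Glo signal was read after 20 min at room temperature. Data were fitted with a four-parameter logistic model. Each IC50 came from that fit after normalisation to vehicle and positive-control wells, and compounds without a concentration response were reported as above the top dose.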
Take `NCCN`: the IC50 (as a rule, the concentration that inhibits the measured activity by half) was greater than 46 µM.
With `Cc1cc(CC(=O)[O-])n(C)c1C(=O)c1ccc(Cl)cc1.[Na+]` the figure was greater than 46 µM.
With `CNC1(C)C2CCC(C2)C1(C)C` (stereo unspecified) the figure was greater than 46 µM; with `CCCCCCCCCCCCCCCCO`, greater than 46 µM; with `O=C(Cn1ccnc1[N+](=O)[O-])NCc1ccccc1`, greater than 46 µM.
With `C=C(C)C1CC=C(C)CC1` (stereo unspecified) the figure was greater than 46 µM; with `CCOc1ccccc1O[C@H](c1ccccc1)[C@H]1CNCCO1.CS(=O)(=O)O`, greater than 46 µM.
`CC[N+](CC)(CC)CCOc1ccc(/C=C/c2ccccc2)cc1.[I-]` displayed an IC50 greater than 46 µM.
The figure for `O=C(O)COc1ccccc1/C=N/NC(=O)c1ccncc1` is greater than 46 µM; for `O=C(O)CCCc1ccc(N(CCCl)CCCl)cc1` it is greater than 46 µM; for `OC(CCN1CCCCC1)(c1ccccc1)c1ccccc1` it is greater than 46 µM.
The figure for `Oc1ccc(/C=C/c2cc(O)cc(O)c2)cc1` is greater than 46 µM; for `CCCn1cnc2c1c(=O)n(CCCCC(C)=O)c(=O)n2C` it is greater than 46 µM.
In turn, `CC(C)CCCC(C)N` (stereo unspecified) displayed an IC50 greater than 46 µM.
With `O=C(O)CN1C(=O)c2cccc3cccc(c23)C1=O` the figure was greater than 46 µM; with `O=C1N2[C@@](SC(C)(C)[C@@H]2[C@@](O)=O)([H])[C@@]([H])1NC([C@H](NC([C@H](N)CC(NC)=O)=O)[C@@]3=CC=C(O)C=C3)=O`, greater than 46 µM; with `CC1=C(C/C=C(\C)CCC[C@H](C)CCC[C@H](C)CCCC(C)C)C(=O)c2ccccc2C1=O`, greater than 46 µM.
With `C/C(=C(\CCOC(=O)C(C)C)SS/C(CCOC(=O)C(C)C)=C(/C)N(C=O)Cc1cnc(C)nc1N)N(C=O)Cc1cnc(C)nc1N` the figure was greater than 46 µM; with `C=CC[N@@H+]1/C(=C/CO)[C@@H]2C[C@H]3[C@H]1CC[C@]31c3ccccc3N3C=C4[C@@H]5N(C=C2[C@H]31)c1ccccc1[C@@]51CC[C@H]2[C@H]1C[C@@H]4/C(=C\CO)[N@@H+]2CC=C.[Cl-].[Cl-]`, greater than 46 µM; with `Cl.OC(CCN1CCCCC1)(c1ccccc1)C1CCCCC1` (stereo unspecified), greater than 46 µM.
Molecule `Cl.Cn1ccc2cc3c(cc21)CCN3C(=O)Nc1cccnc1` yielded an IC50 greater than 46 µM.
On to `CCCCC(C)(O)C/C=C/[C@H]1[C@H](O)CC(=O)[C@@H]1CCCCCCC(=O)OC` (stereo partly specified), for which the IC50 is greater than 46 µM.
The figure for `O=[C@](O)[C@@H]1[C@@H](CC(O)=O)[C@@H]([C@](C)=C)CN1` is greater than 46 µM; for `CC(=O)Oc1cc(C(F)(F)F)ccc1C(=O)O` it is greater than 46 µM; for `N=C(N)NC(=O)c1nc(Cl)c(N)nc1N` it is greater than 46 µM.
The figure for `CN1CCC[C@@H]1c1cccnc1` is greater than 46 µM; for `C[C@H]1CC[C@]2(NC1)O[C@H]1C[C@H]3[C@@H]4CC[C@H]5C[C@@H](O)CC[C@]5(C)[C@H]4CC[C@]3(C)[C@H]1[C@@H]2C.Cl` it is greater than 46 µM; for `C#CC(C)(O)CC` (stereo unspecified) it is greater than 46 µM.
With `CS(=O)(=O)O.CS(=O)(=O)O.N=C(N)c1ccc(/C=C/c2ccc(C(=N)N)cc2O)cc1` the figure was greater than 46 µM.
Consider `O=C(O)Cc1ccc(-c2ccccc2)cc1`, for which the concentration for half-maximal inhibition (IC50) was greater than 46 µM.
With `Cc1ncc(CNC(=O)N(CCCl)N=O)c(N)n1` the figure was greater than 46 µM; with `CC(=O)CC(c1ccc([N+](=O)[O-])cc1)c1c(O)c2ccccc2oc1=O` (stereo unspecified), greater than 46 µM; with `CCCCCCCCC(=O)NCc1ccc(O)c(OC)c1`, greater than 46 µM.
With `O=C3N1/C(=C(/C)CS[C@@H]1[C@@H]3NC(=O)[C@H](N)c2ccc(O)cc2)C(O)=O` the figure was greater than 46 µM.
Take `Nc1nc(/C(=C/CC(=O)O)C(=O)N[C@@H]2C(=O)N3C(C(=O)O)=CCS[C@H]23)cs1`: the IC50 was greater than 46 µM.
The figure for `OCC(O)CS` (stereo unspecified) is greater than 46 µM; for `CC12CCC(C[N+](C)(CCC[N+](C)(C)C)C1)C2(C)C.COS(=O)(=O)[O-].COS(=O)(=O)[O-]` (stereo unspecified) it is greater than 46 µM.
Consider `CC[N+](C)(C)Cc1ccccc1Br.Cc1ccc(S(=O)(=O)[O-])cc1`, for which the half-maximal inhibitory concentration (IC50) was greater than 46 µM.
With `ClC(Cl)Cl` the figure was greater than 46 µM; with `CCOCC(O)COc1ccc(NC(=O)CC[S+](C)C)cc1.Cc1ccc(S(=O)(=O)[O-])cc1` (stereo unspecified), greater than 46 µM.
Consider `NS(=O)(=O)c1cc2c(cc1Cl)NC(CC1CCCC1)NS2(=O)=O` (stereo unspecified), for which the IC50 was greater than 46 µM.
The figure for `C[C@@]1(CC2)[C@H](OC(C)=O)C[C@H]2[C@](C)1C` is greater than 46 µM.
With `NS(=O)(=O)c1cc2c(cc1Cl)NC(C(Cl)Cl)NS2(=O)=O` (stereo unspecified) the figure was greater than 46 µM.
The figure for `CC(=O)Oc1ccc(C2(c3ccc(OC(C)=O)cc3)C(=O)Nc3ccccc32)cc1` is greater than 46 µM.
`C/C(=N\Cc1ccccc1)c1ccccc1O` registered an IC50 greater than 46 µM.
The figure for `C[C@H](C(=O)[O-])c1cccc(Oc2ccccc2)c1.C[C@H](C(=O)[O-])c1cccc(Oc2ccccc2)c1.O.O.[Ca+2]` is greater than 46 µM; for `CCOC(=O)c1cccnc1` it is greater than 46 µM.
With `NC1=NC(=O)N2CC12` (stereo unspecified) the figure was greater than 46 µM; with `Cl.OC(CCN1CCCC1)(c1ccccc1)C1CCCCC1` (stereo unspecified), greater than 46 µM.
With `C=O` the figure was greater than 46 µM.
For `Cc1cccc(N(C)C(=S)Oc2ccc3ccccc3c2)c1`, the IC50 was greater than 46 µM.
The figure for `C[C@H](N)[C@H](O)c1ccc(O)c(O)c1` is greater than 46 µM; for `CN1c2ccccc2C(NCCCCCCC(=O)[O-])c2ccc(Cl)cc2S1(=O)=O.[Na+]` (stereo unspecified) it is greater than 46 µM.
With `NC(=O)c1ncn([C@@H]2O[C@H](CO)[C@@H](O)[C@H]2O)n1` the figure was greater than 46 µM; with `OC(C)=O.NC(CNC([C@H](CCCNC(N)=N)N[C@]([C@@H]1CCCN1[C@]([C@H](CSSCCC(N[C@@H](CC4=CC=C(O)C=C4)C3=O)=O)NC([C@H](CC(N)=O)NC([C@@H](NC([C@@H](N3)CC2=CC=CC=C2)=O)CCC(N)=O)=O)=O)=O)=O)=O)=O`, greater than 46 µM; with `C(N3C2)(SCC3)=N[C@H]2[C@@]1=CC=CC=C1.Cl`, greater than 46 µM.
With `Nc1ccc(S(=O)(=O)Nc2ccccn2)cc1` the figure was greater than 46 µM; with `COc1ccc(C(=O)c2ccc(C)cc2)c(O)c1`, greater than 46 µM; with `Cc1cc(NS(=O)(=O)c2ccc(N)cc2)nc(C)n1`, greater than 46 µM.
Consider `OCc1ccccn1`, for which the IC50 was greater than 46 µM.
Molecule `NCCCCCC(=O)O` returned an IC50 greater than 46 µM.
The figure for `Cc1ccc(S(=O)(=O)[O-])cc1C.[Na+]` is greater than 46 µM; for `O=C(O)CCNC(=O)c1ccc(/N=N/c2ccc(O)c(C(=O)O)c2)cc1` it is greater than 46 µM; for `CNC[C@H](O)c1cccc(O)c1.Cl` it is greater than 46 µM.
Consider `CCOP(=O)(OCC)OC(=CCl)c1ccc(Cl)cc1Cl`, for which the IC50 was greater than 46 µM.
The figure for `O=C1c2ccccc2C(=O)C1c1ccc(Br)cc1` is greater than 46 µM.
The figure for `CC1=CCC(C(C)(C)O)CC1` (stereo unspecified) is greater than 46 µM; for `CC1=C2[C@H]3OC(=O)[C@@H](C)[C@@H]3CC[C@@]2(C)C=CC1=O` it is greater than 46 µM.
The molecule `C[C@]12CCC(=O)C[C@@H]1CC[C@@H]1[C@@H]2CC[C@]2(C)[C@@H](O)CC[C@@H]12` had a 50% inhibitory concentration (IC50) greater than 46 µM.
With `CNCCCN1c2ccccc2CCc2ccccc21.Cl` the figure was greater than 46 µM; with `Cc1cccc(C)c1NC(=O)CN(CC(=O)O)CC(=O)O`, greater than 46 µM.
The figure for `CCOC(N)=O` is greater than 46 µM; for `NC(=O)CC[C@@H](N)C(=O)O` it is greater than 46 µM.
With `Cc1ccc(S(=O)(=O)O)cc1.c1cc2c(c(NC3=NCCN3)c1)CCCC2` the figure was greater than 46 µM; with `CC(=O)Nc1ccc(OC(=O)c2ccccc2OC(C)=O)cc1`, greater than 46 µM.
With `F[C@@]([C@](C=C4)(C)C3=CC4=O)2[C@@H](O)C[C@]([C@](C5)([H])[C@@]([H])2CC3)(C)[C@@]1([C@](CO)=O)[C@@H]5OC(C)(C)O1`, the IC50 was greater than 46 µM.
With `NC(=O)NS(=O)(=O)c1ccc(N)cc1` the figure was greater than 46 µM.
With `N[C@H](C(=O)O)c1ccc(O)cc1` the figure was greater than 46 µM.
With `COc1ccc(C(=O)N2CCN(CC(=O)N3CCOCC3)CC2)cc1` the figure was greater than 46 µM.
`CN1C(=O)CCS(=O)(=O)C1c1ccc(Cl)cc1` (stereo unspecified) registered an IC50 greater than 46 µM.
With `O=C1Cc2cc(CCN3CCN(c4nsc5ccccc45)CC3)c(Cl)cc2N1` the figure was greater than 46 µM.
The figure for `CCCCCl` is greater than 46 µM.
With `O=C(SC[C@@H](C(N(C3)[C@@H](C[C@@H]3SC2=CC=CC=C2)[C@@](O)=O)=O)C)C1=CC=CC=C1` the figure was greater than 46 µM; with `CC(CCc1ccc(O)cc1)NCCc1ccc(O)c(O)c1` (stereo unspecified), greater than 46 µM; with `C=C[C@]1(C)C[C@@H](OC(=O)CSC(C)(C)CNC(=O)[C@H](N)C(C)C)[C@]2(C)[C@H](C)CC[C@]3(CCC(=O)[C@H]32)[C@@H](C)[C@@H]1O`, greater than 46 µM.
`C[C@]12C[C@H]3S[C@H]3C[C@@H]1CC[C@@H]1[C@@H]2CC[C@]2(C)[C@@H](O)CC[C@@H]12` registered an IC50 greater than 46 µM.
Consider `CCCCCCCCCCCCCCCC(=O)O`, for which the IC50 is greater than 46 µM.
With `CC/C=C\C/C=C\C/C=C\C/C=C\C/C=C\CCCC(=O)O` the figure was greater than 46 µM; with `CC(C)(Oc1ccc(CCNC(=O)c2ccc(Cl)cc2)cc1)C(=O)O`, greater than 46 µM; with `Cl.O=C1c2cccc3c2[C@H](CCC3)CN1[C@@H]1CN2CCC1CC2`, greater than 46 µM.
As for `O=[C@@](OCCl)[C@](CC2)(OC(OCC)=O)[C@]1(C)[C@]2([H])[C@@](CCC3=CC4=O)([H])[C@]([C@](C)3C=C4)([H])[C@@H](O)C1`, the half-maximal inhibitory concentration (IC50) was greater than 46 µM.

(Values after the supplement of paper PMC3493320.)
